Measurements taken from patent US11931403B2, “Compositions, systems, and methods for treating or reducing hypoxia-ischemia induced brain damage and neurobehavioral dysfunction in neonates” (UNIVERSITY OF MISSISSIPPI MEDICAL CENTER, priority 2019, dated 2024).

Assays:
[1] = set-up: species or system Sprague-Dawley rats; conditions: rat, in vivo
Experimental: Another set of animals were prepared for ELISA study. […] Total proteins were extracted using protein lysis buffer (Invitrogen).
Ex vivo whole brain and spinal cord imaging using live imaging devices (IVIS Spectrum imaging system) was performed to provide an accurate picture of the overall bio-distribution of fluorescent labeling insulin. […] To accurately assess bio-distribution of intranasal insulin, all tissues of interest were analyzed by ELISA.

[2] = test system: neonatal piglet model of HI; conditions: bolus injection followed by continuous infusion, continued during HI exposure; cited from earlier work
neonatal pig model of HI = conditions: IV, to prevent hyperglycemia during glucose infusion before HI injury; cited from earlier work

Alexa 546-labeled insulin: fluorescent Alexa 546-labeled insulin (Nanocs Inc) used to study distribution in brain after intranasal application
Delivery to the central nervous system (fluorescence imaging) [1]: delivered to the central nervous system at 15 minutes

regular insulin: regular insulin bolus and infusion to induce moderate hypoglycemia in a neonatal piglet HI model
Brain injury with insulin-induced hypoglycemia [2]: not able to ameliorate brain injury

regular porcine insulin: IV regular porcine insulin used by LeBlanc et al. in a neonatal pig model of HI
Outcome of piglets in the insulin group (neonatal pig model of HI): fared slightly better
